In patent publication US9546164B2 (GENENTECH, INC., priority 2013, dated 2017):
Where a name gives a salt, the structure may show the parent alone. Read-outs that look alike come from different tables or passages of the source.

Target: hNav1.7 (Homo sapiens (Human), UniProt Q15858)
Assay: Tritiated sulfonamide competitive binding to membranes from cells expressing hNav1.7 and the β1 subunit;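 note: Filter-bound radioactivity counted by liquid scintillation, nonspecific binding defined with excess unlabelled ligand, IC50 fitted to percent inhibition of specific binding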
[1] = read-out: Ligand Binding Assay, 100 pM [3H]compound, membranes with hNav1.7 and β1 subunit, 18 h, room temperature

Sequence of hNav1.7 (Q15858 other isoform, or with tags, fused parts or gaps): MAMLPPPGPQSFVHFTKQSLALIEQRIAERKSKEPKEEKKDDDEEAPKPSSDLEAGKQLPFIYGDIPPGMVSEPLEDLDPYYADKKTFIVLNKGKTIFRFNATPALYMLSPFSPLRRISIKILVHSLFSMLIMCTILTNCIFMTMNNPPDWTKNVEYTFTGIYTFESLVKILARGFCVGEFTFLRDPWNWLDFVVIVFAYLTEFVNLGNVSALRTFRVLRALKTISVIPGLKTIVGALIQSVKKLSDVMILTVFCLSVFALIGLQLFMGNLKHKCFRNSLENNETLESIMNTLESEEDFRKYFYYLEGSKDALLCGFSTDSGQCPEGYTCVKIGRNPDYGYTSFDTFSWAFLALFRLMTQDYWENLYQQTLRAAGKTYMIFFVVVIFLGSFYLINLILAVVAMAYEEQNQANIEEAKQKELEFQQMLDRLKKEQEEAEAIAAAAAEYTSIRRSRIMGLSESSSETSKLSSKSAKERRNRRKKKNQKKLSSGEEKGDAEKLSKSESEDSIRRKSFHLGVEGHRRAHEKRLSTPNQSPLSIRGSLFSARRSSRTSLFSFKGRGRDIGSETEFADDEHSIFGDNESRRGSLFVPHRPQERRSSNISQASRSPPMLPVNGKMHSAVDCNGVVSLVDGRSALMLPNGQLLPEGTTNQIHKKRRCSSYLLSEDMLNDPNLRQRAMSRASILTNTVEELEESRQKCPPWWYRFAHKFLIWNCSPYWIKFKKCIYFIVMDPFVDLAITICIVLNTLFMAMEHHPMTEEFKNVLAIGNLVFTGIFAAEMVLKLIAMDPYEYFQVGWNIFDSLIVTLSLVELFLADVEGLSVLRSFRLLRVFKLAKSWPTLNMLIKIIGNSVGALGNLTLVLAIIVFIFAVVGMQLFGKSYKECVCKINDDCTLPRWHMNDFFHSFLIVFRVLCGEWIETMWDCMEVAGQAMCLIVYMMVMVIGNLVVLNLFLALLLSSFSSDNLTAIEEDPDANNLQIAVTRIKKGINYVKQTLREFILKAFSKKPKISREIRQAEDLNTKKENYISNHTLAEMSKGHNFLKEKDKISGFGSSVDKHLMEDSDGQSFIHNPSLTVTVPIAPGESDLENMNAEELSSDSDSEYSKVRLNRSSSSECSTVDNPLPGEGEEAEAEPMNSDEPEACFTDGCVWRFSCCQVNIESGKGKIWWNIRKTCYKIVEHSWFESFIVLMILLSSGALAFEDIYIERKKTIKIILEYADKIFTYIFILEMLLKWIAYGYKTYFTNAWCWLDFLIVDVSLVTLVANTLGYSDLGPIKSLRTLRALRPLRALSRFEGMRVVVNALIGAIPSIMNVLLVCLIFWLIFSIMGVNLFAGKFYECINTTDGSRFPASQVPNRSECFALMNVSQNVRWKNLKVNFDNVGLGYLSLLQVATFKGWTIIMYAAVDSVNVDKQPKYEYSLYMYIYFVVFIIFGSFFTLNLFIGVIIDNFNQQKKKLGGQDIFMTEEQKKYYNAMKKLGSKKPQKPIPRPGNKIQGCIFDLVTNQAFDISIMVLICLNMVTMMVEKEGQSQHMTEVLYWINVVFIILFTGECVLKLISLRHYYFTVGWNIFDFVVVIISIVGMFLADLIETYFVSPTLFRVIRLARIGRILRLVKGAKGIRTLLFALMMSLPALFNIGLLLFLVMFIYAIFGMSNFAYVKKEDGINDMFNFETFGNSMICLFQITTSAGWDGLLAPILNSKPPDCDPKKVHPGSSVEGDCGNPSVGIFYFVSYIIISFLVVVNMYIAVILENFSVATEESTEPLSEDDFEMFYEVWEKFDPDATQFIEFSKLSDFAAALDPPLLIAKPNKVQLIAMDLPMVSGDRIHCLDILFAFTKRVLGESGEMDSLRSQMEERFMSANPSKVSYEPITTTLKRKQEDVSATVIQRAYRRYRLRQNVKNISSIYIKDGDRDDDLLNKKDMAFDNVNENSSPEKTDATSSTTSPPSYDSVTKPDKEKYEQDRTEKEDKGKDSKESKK
Sequence of hNav1.7 (Q07699 19-218 partner): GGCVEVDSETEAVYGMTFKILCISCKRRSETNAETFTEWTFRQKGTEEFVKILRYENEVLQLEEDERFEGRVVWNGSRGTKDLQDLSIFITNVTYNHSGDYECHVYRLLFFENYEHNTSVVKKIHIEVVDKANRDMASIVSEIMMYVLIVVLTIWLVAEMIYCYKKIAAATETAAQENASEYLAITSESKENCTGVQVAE

| IC50 [1] [nM] | IC50 [nM] | SMILES |
| --- | --- | --- |
| 3.6 | – | CC1(Oc2cc(C(F)(F)F)c(Cl)cn2)CCN(Cc2cc(F)c(C(=O)NS(=O)(=O)C3CC3)cc2C2CC2)CC1 [Example 472, 4-((4-((5-chloro-4-(trifluoromethyl)pyridin-2-yl)oxy)-4-methylpiperidin-1-yl)methyl)-5-cyclopropyl-N-(cyclopropylsulfonyl)-2-fluorobenzamide, trifluoroacetic acid salt] |
| 5.2 | – | CC1(COc2cc(F)c(C(=O)NS(=O)(=O)C3CC3)cc2C2CC2)CN(c2ncc(Cl)cc2F)C1 [Example 483, 4-((1-(5-chloro-3-fluoropyridin-2-yl)-3-methylazetidin-3-yl)methoxy)-5-cyclopropyl-N-(cyclopropylsulfonyl)-2-fluorobenzamide] |
| 1.7 | – | CCS(=O)(=O)NC(=O)c1cc(C2CC2)c(OCC2CCN([C@H](c3cc(Cl)cc(Cl)c3)C(C)(C)OC)CC2)cc1F (single isomer, unassigned) [Example 207] |
| – | 6.1 | CS(=O)(=O)NC(=O)c1cc(C2CC2)c(O[C@@H]2CCCN(Cc3cccc(Cl)c3)C2)cc1F [Example 26, (R)-4-((1-(3-chlorobenzyl)piperidin-3-yl)oxy)-5-cyclopropyl-2-fluoro-N-(methylsulfonyl)benzamide acid] |
| 20 | – | COC[C@H](c1cccc(Cl)c1)N1CCC(COc2cc(F)c(C(=O)NS(C)(=O)=O)cc2C2CC2)CC1 (single isomer, unassigned) [Example 263] |
| 4.2 | – | CC(C)Oc1ncc([C@@H](c2ccccc2)N2CC(COc3cc(F)c(C(=O)NS(C)(=O)=O)cc3C3CC3)C2)cc1Cl [Example 115, (R)-4-((1-((5-Chloro-6-isopropoxypyridin-3-yl)(phenyl)methyl)azetidin-3-yl)methoxy)-5-cyclopropyl-2-fluoro-N-(methylsulfonyl)benzamide] |
| – | 127 | O=C(NS(=O)(=O)C1CC1)c1cc(C2CC2)c(CN2CCC(S(=O)(=O)c3cc(Cl)cc(Cl)c3)CC2)cc1F [Example 533, 5-cyclopropyl-N-(cyclopropylsulfonyl)-4-((4-((3,5-dichlorophenyl)sulfonyl)piperidin-1-yl)methyl)-2-fluorobenzamide, trifluoroacetic acid salt] |
| 2.9 | – | C[C@H](c1cc(Cl)cc(Cl)c1F)N1CCC(COc2cc(F)c(C(=O)NS(C)(=O)=O)cc2C2CC2)CC1 (single isomer, unassigned) [Example 237] |
| – | 44.3 | C[C@@H]1CN(Cc2cc(F)c(C(=O)NS(C)(=O)=O)cc2C2CC2)CCN1[C@@H](C)c1cc(Cl)cc(Cl)c1 [Example 571, 5-cyclopropyl-4-(((R)-4-((S)-1-(3,5-dichlorophenyl)ethyl)-3-methylpiperazin-1-yl)methyl)-2-fluoro-N-(methylsulfonyl)benzamide] |
| 32.2 | – | C[C@H]1[C@H](Oc2cc(F)c(C(=O)NS(C)(=O)=O)cc2C2CC2)CCCN1Cc1cc(Cl)cc(Cl)c1 [Example 331, 5-cyclopropyl-4-(((2S,3R)-1-(3,5-dichlorobenzyl)-2-methylpiperidin-3-yl)oxy)-2-fluoro-N-(methylsulfonyl)benzamide, trifluoroacetic acid salt] |
| 5.7 | – | O=C(NS(=O)(=O)N1CCC1)c1cc(C2CC2)c(OCC2CCN(Cc3ccc(C4CC4)cc3Cl)CC2)cc1F [Example 417, N-(azetidin-1-ylsulfonyl)-4-((1-(2-chloro-4-cyclopropylbenzyl)piperidin-4-yl)methoxy)-5-cyclopropyl-2-fluorobenzamide, trifluoroacetic acid salt] |
| 2.6 | – | CS(=O)(=O)NC(=O)c1cc(C2CC2)c(OCC2CN([C@H](c3ccccc3)c3cc(Cl)cc(Cl)c3)C2)cc1F [Example 143] |
| 270 | – | CS(=O)(=O)NC(=O)c1cc(C2CC2)c(OCC2CCN(C(=O)c3ccc(Cl)cc3Cl)CC2)cc1F [Example 257, 5-Cyclopropyl-4-((1-(2,4-dichlorobenzoyl)piperidin-4-yl)methoxy)-2-fluoro-N-(methylsulfonyl)benzamide] |
| 91 | – | CS(=O)(=O)NC(=O)c1cc(C2CC2)c(OCC2(F)CN(Cc3ccccc3)C2)cc1F [Example 66, 4-((1-benzyl-3-fluoroazetidin-3-yl)methoxy)-5-cyclopropyl-2-fluoro-N-(methylsulfonyl)benzamide] |
| 9.1 | – | COc1ccc(CN2CCC[C@@H](Oc3cc(F)c(C(=O)NS(=O)(=O)C4CC4)cc3C3CC3)C2)cc1F [Example 313, (R)-5-cyclopropyl-N-(cyclopropylsulfonyl)-2-fluoro-4-((1-(3-fluoro-4-methoxybenzyl)piperidin-3-yl)oxy)benzamide] |
| 12 | – | CS(=O)(=O)NC(=O)c1cc(C2CC2)c(OCC2CCN(C3(c4cc(Cl)cc(Cl)c4)COC3)CC2)cc1F [Example 174, 5-Cyclopropyl-4-((1-(3-(3,5-dichlorophenyl)oxetan-3-yl)piperidin-4-yl)methoxy)-2-fluoro-N-(methylsulfonyl)benzamide] |
| 2.99 | – | CS(=O)(=O)NC(=O)c1cc(C2CC2)c(OCC2CN(C(c3ccccc3)c3ccc(C(F)(F)F)cc3)C2)cc1F (stereo not shown) [Example 131, 5-Cyclopropyl-2-fluoro-N-(methylsulfonyl)-4-((1-(phenyl(4-(trifluoromethyl)phenyl)methyl)-azetidin-3-yl)methoxy)benzamide] |
| 19 | – | CS(=O)(=O)NC(=O)c1cc(C2CC2)c(O[C@@H]2CCCN(Cc3cc(Cl)ccc3O)C2)cc1F [Example 427, (R)-4-((1-(5-chloro-2-hydroxybenzyl)piperidin-3-yl)oxy)-5-cyclopropyl-2-fluoro-N-(methylsulfonyl)benzamide, trifluoroacetic acid salt] |
| 5.1 | – | CCS(=O)(=O)NC(=O)c1cc(C2CC2)c(OCC2CCN(Cc3cc(Cl)cc(Cl)c3)CC2)cc1F [Example 184, 5-Cyclopropyl-4-((1-(3,5-dichlorobenzyl)piperidin-4-yl)methoxy)-N-(ethylsulfonyl)-2-fluorobenzamide] |
| 306 | – | CS(=O)(=O)NC(=O)c1cc(C2CC2)c(OCC2CN(C(c3ccccc3)c3ccccn3)C2)cc1F (stereo in doubt) [Example 119, (S)-5-Cyclopropyl-2-fluoro-N-(methylsulfonyl)-4-((1-(phenyl(pyridin-2-yl)methyl)azetidin-3-yl)methoxy)benzamide] |
| 3.6 | – | CCS(=O)(=O)NC(=O)c1cc(C2CC2)c(OCC2CCN([C@H](C)c3ccc(Cl)cc3Cl)CC2)cc1F [Example 284, (R)-5-cyclopropyl-4-((1-(1-(2,4-dichlorophenyl)ethyl)piperidin-4-yl)methoxy)-N-(ethylsulfonyl)-2-fluorobenzamide] |
| 9.5 | – | O=C(NS(=O)(=O)C1CC1)c1cc(C2CC2)c(CN2CCC(Oc3ncc(Br)cc3Cl)CC2)cc1F [Example 473, 4-((4-((5-bromo-3-chloropyridin-2-yl)oxy)piperidin-1-yl)methyl)-5-cyclopropyl-N-(cyclopropylsulfonyl)-2-fluorobenzamide, trifluoroacetic acid salt] |
| 7.51 | – | CC(c1cc(Cl)cc(Cl)c1)N1CC(COc2cc(F)c(C(=O)NS(C)(=O)=O)cc2C2CC2)C1 (stereo not shown) [Example 98, 5-Cyclopropyl-4-((1-(1-(3,5-dichlorophenyl)ethyl)azetidin-3-yl)methoxy)-2-fluoro-N-(methylsulfonyl)benzamide] |
| 1260 | – | O=C(NS(=O)(=O)C1CC1)c1cc(C2CC2)c(OCC2CCN(S(=O)(=O)C3CCOCC3)CC2)cc1F [Example 377, 5-cyclopropyl-N-(cyclopropylsulfonyl)-2-fluoro-4-((1-((tetrahydro-2H-pyran-4-yl)sulfonyl)piperidin-4-yl)methoxy)benzamide] |
| 350 | – | CS(=O)(=O)NC(=O)c1cc(C2CC2)c(OCC2CCN(C(=O)c3cccc(Cl)c3)CC2)cc1F [Example 195, 4-((1-(3-Chlorobenzoyl)piperidin-4-yl)methoxy)-5-cyclopropyl-2-fluoro-N-(methylsulfonyl)benzamide] |
| 920 | – | O=C(NS(=O)(=O)N1CCC1)c1cc(C2CC2)c(O[C@@H]2CCN(Cc3ccccc3)C2)cc1F [Example 46, (R)—N-(azetidin-1-ylsulfonyl)-4-((1-benzylpyrrolidin-3-yl)oxy)-5-cyclopropyl-2-fluorobenzamide] |
| 327 | – | CS(=O)(=O)NC(=O)c1cc(C2CC2)c(OCC2CCN(Cc3ncccc3C(F)(F)F)CC2)cc1F [Example 365, 5-cyclopropyl-2-fluoro-N-(methylsulfonyl)-4-((1-((3-(trifluoromethyl)pyridin-2-yl)methyl)piperidin-4-yl)methoxy)benzamide, trifluoroacetic acid salt] |
| 5 | – | C[C@H](c1cc(F)cc(C(F)(F)F)c1)N1CCC(C)(COc2cc(F)c(C(=O)NS(C)(=O)=O)cc2C2CC2)CC1 [Example 170, (R)-5-cyclopropyl-2-fluoro-4-((1-(1-(3-fluoro-5-(trifluoromethyl)phenyl)ethyl)-4-methylpiperidin-4-yl)methoxy)-N-(methylsulfonyl)benzamide] |
| 250 | – | COC[C@H](c1ccccc1)N1CCC(COc2cc(F)c(C(=O)NS(C)(=O)=O)cc2C2CC2)CC1 [Example 223, (S)-5-cyclopropyl-2-fluoro-4-((1-(2-methoxy-1-phenylethyl)piperidin-4-yl)methoxy)-N-(methylsulfonyl)benzamide] |

| SMILES | IC50 [1] [nM] | IC50 [nM] |
| --- | --- | --- |
| O=C(NS(=O)(=O)C1CC1)c1cc(C2CC2)c(CN2[C@@H]3CC[C@H]2CC(Oc2cc(C(F)(F)F)cc(Cl)c2F)C3)cc1F (stereo partly drawn) [Example 470, 4-(((1R,3r,5S)-3-(3-chloro-2-fluoro-5-(trifluoromethyl)phenoxy)-8-azabicyclo[3.2.1]octan-8-yl)methyl)-5-cyclopropyl-N-(cyclopropylsulfonyl)-2-fluorobenzamide, trifluoroacetic acid salt] | 3.8 | – |
| CC1(C)CN(Cc2cc(F)c(C(=O)NS(C)(=O)=O)cc2C2CC2)CCC1Oc1cc(C(F)(F)F)c(Cl)cn1 (stereo not shown) [Example 561, 4-((4-((5-chloro-4-(trifluoromethyl)pyridin-2-yl)oxy)-3,3-dimethylpiperidin-1-yl)methyl)-5-cyclopropyl-2-fluoro-N-(methylsulfonyl)benzamide, trifluoroacetic acid salt] | – | 2.8 |
